Data taken from paper PMC8742647 (Clinical and Translational Science, 2021).
Read-outs that look alike come from different tables or passages of the source.

How the values were obtained:
[1] = total clearance after intravenous administration to PXB-mice; type: in vivo, PXB‐mice (chimeric mice with humanized livers); conditions: intravenous cassette dose 0.1 mg/kg, N = 3, noncompartmental analysis
[2] = total clearance after intravenous administration to rats; type: in vivo, Sprague–Dawley rats; conditions: intravenous cassette dose 0.1 mg/kg, N = 3
[3] = prediction of CLt,human by single-species allometric scaling from PXB-mice; design: species or system humans; conditions: for Predicted CLt,human, PXB‐SSS: scaled from CLt in PXB-mice, exponent 0.75; for Fold error (predicted/observed), PXB‐SSS: predicted/observed CLt,human
[4] = prediction of CLt,human by physiologically based scaling using PXB-mice; design: species or system humans; conditions: for Predicted CLt,human, PXB‐PBS: from CLt in PXB-mice, dispersion model, CLint per hepatocyte assumed equal; for Fold error (predicted/observed), PXB‐PBS: predicted/observed CLt,human
[5] = blood‐to‐plasma concentration ratio, ref Table S1; cited from earlier work
[6] = ref Table S1; cited from earlier work
[7] = ref Table S1; cited from earlier work; remark: listed apart in the source
[8] = humans; ref Table S1; cited from earlier work
[9] = prediction of CLt,human by multispecies allometric scaling, rule of exponent; conditions: for Predicted CLt,human, ROE: from CLt in rats, monkeys and dogs
[10] = tested on: cryopreserved human hepatocytes; experiment: in vitro metabolic stability assay using cryopreserved human hepatocytes; conditions: for turnover during a 4‐h incubation in the human hepatocyte assay: criterion for low‐CLint compounds: no significant turnover (<20%); for CLint per hepatocyte, Humans: in vitro, human hepatocytes, corrected with fraction unbound in hepatocytes and medium
[11] = fraction unbound in plasma, equilibrium dialysis; type: in vitro ADME, humans; conditions: fraction unbound in human plasma
[12] = fraction unbound in rat plasma; ref Table S1; cited from earlier work
[13] = for Predicted CLt,human, FCIM: from CLt in rats, monkeys and dogs and fu,p ratio rat/human
[14] = prediction of CLt,human by in vitro–in vivo extrapolation; design: species or system humans; conditions: from in vitro CLint per human hepatocyte, dispersion model
[15] = ref Table S1; cited from earlier work; remark: listed apart in the source

## COc1ccc2cc([C@H](C)C(=O)O)ccc2c1 [(S)‐Naproxen]
[1]
  CLt, PXB‐mice: 0.556 mL/min/kg
[2]
  CLt, Rats: 0.41 mL/min/kg
[3]
  Predicted CLt,human, PXB‐SSS: 0.072 mL/min/kg
[4]
  Predicted CLt,human, PXB‐PBS: 0.085 mL/min/kg
[5]
  R b, Humans: 0.55
[6]
  CLt, Monkeys: 0.83 mL/min/kg
[7]
  CLt, Dogs: 0.04 mL/min/kg
[8]
  Observed CLt,human: 0.11 mL/min/kg
[9]
  Predicted CLt,human, ROE: 0.051 mL/min/kg

## Cn1c(=O)c2[nH]cnc2n(C)c1=O [Theophylline]
[1]
  CLt, PXB‐mice: 4.70 mL/min/kg
[2]
  CLt, Rats: 1.91 mL/min/kg
[3]
  Predicted CLt,human, PXB‐SSS: 0.60 mL/min/kg
[4]
  Predicted CLt,human, PXB‐PBS: 0.72 mL/min/kg
[5]
  R b, Humans: 0.85
[6]
  CLt, Monkeys: 1.08 mL/min/kg
[7]
  CLt, Dogs: 1.73 mL/min/kg
[10]
  turnover during a 4‐h incubation in the human hepatocyte assay: < 20%
[9]
  Predicted CLt,human, ROE: 0.68 mL/min/kg

## Cc1cc(=O)n(-c2ccccc2)n1C [Antipyrine]
[11]
  f u,p, Humans: 0.990
[1]
  CLt, PXB‐mice: 4.60 mL/min/kg
[2]
  CLt, Rats: 7.86 mL/min/kg
[3]
  Fold error (predicted/observed), PXB‐SSS: 0.92
  Predicted CLt,human, PXB‐SSS: 0.59 mL/min/kg
[4]
  Predicted CLt,human, PXB‐PBS: 0.71 mL/min/kg
  Fold error (predicted/observed), PXB‐PBS: 1.10
[5]
  R b, Humans: 1
[12]
  f u,p, Rats: 0.690
[6]
  CLt, Monkeys: 11.5 mL/min/kg
[7]
  CLt, Dogs: 7.22 mL/min/kg
[8]
  Observed CLt,human: 0.64 mL/min/kg
[10]
  turnover during a 4‐h incubation in the human hepatocyte assay: < 20%
[9]
  discrepancy between observed and predicted CLt,human, ROE approach: more than 3 fold
  Predicted CLt,human, ROE: 3.32 mL/min/kg
[9]; predicted/observed CLt,human
  Fold error (predicted/observed), ROE: 5.19
[13]
  discrepancy between observed and predicted CLt,human, FCIM approach: more than 3 fold
  Predicted CLt,human, FCIM: 3.31 mL/min/kg
[13]; predicted/observed CLt,human
  Fold error (predicted/observed), FCIM: 5.17

## CC(C)(C)NC[C@H](O)COc1nsnc1N1CCOCC1 [Timolol]
[11]
  f u,p, Humans: 0.715
[1]
  CLt, PXB‐mice: 130.05 mL/min/kg
[2]
  CLt, Rats: 137.02 mL/min/kg
[3]
  Fold error (predicted/observed), PXB‐SSS: 1.98
  Predicted CLt,human, PXB‐SSS: 16.8 mL/min/kg
[4]
  Predicted CLt,human, PXB‐PBS: 13.7 mL/min/kg
  Fold error (predicted/observed), PXB‐PBS: 1.62
[5]
  R b, Humans: 0.84
[12]
  f u,p, Rats: 0.760
[6]
  CLt, Monkeys: 13.6 mL/min/kg
[8]
  Observed CLt,human: 8.5 mL/min/kg
[10]
  turnover during a 4‐h incubation in the human hepatocyte assay: < 20%

## COc1ccccc1Oc1c(NS(=O)(=O)c2ccc(C(C)(C)C)cc2)nc(-c2ncccn2)nc1OCCO [Bosentan]
[1]
  CLt, PXB‐mice: 8.78 mL/min/kg
[3]
  Predicted CLt,human, PXB‐SSS: 1.18 mL/min/kg
[4]
  Predicted CLt,human, PXB‐PBS: 1.39 mL/min/kg
[14]
  Predicted CLt,human, IVIVE: 0.68 mL/min/kg
[5]
  R b, Humans: 0.48
[15]
  CLt, Rats: 16.40 mL/min/kg
[6]
  CLt, Monkeys: 20.6 mL/min/kg
[7]
  CLt, Dogs: 1.72 mL/min/kg
[8]
  Observed CLt,human: 2.1 mL/min/kg
[10]
  CLint per hepatocyte, Humans: 12.3 µl/min/1 × 10^6 cells
[9]
  Predicted CLt,human, ROE: 1.68 mL/min/kg
[13]
  Predicted CLt,human, FCIM: 5.37 mL/min/kg

## CC(C)N(CCC(C(N)=O)(c1ccccc1)c1ccccn1)C(C)C (stereo not shown) [Disopyramide]
[11]
  f u,p, Humans: 0.161
[1]
  CLt, PXB‐mice: 28.86 mL/min/kg
[2]
  CLt, Rats: 179.46 mL/min/kg
[3]
  Predicted CLt,human, PXB‐SSS: 3.72 mL/min/kg
[4]
  Predicted CLt,human, PXB‐PBS: 4.63 mL/min/kg
[14]
  Predicted CLt,human, IVIVE: 1.24 mL/min/kg
[5]
  R b, Humans: 1.2
[12]
  f u,p, Rats: 0.610
[6]
  CLt, Monkeys: 19 mL/min/kg
[7]
  CLt, Dogs: 29 mL/min/kg
[8]
  Observed CLt,human: 0.9 mL/min/kg
[10]
  CLint per hepatocyte, Humans: 3.2 µl/min/1 × 10^6 cells
[9]
  Predicted CLt,human, ROE: 7.36 mL/min/kg

## Nc1ccc(S(=O)(=O)c2ccc(N)cc2)cc1 [Dapsone]
[11]
  f u,p, Humans: 0.381
[1]
  CLt, PXB‐mice: 4.40 mL/min/kg
[2]
  CLt, Rats: 6.87 mL/min/kg
[3]
  Predicted CLt,human, PXB‐SSS: 0.60 mL/min/kg
[4]
  Predicted CLt,human, PXB‐PBS: 0.67 mL/min/kg
[10]
  turnover during a 4‐h incubation in the human hepatocyte assay: < 20%
[9]
  Predicted CLt,human, ROE: 0.91 mL/min/kg
[13]
  Predicted CLt,human, FCIM: 2.01 mL/min/kg
